By melting point is commonly meant the temperature of the solid-liquid transition.

In one series the test system is S. aureus (MRSA). Kind of series: MIC against S. aureus (MRSA). In kind it is cell-based. The method, then:
(§1) All examples were tested against several gram positive and gram negative bacteria. They all have a broader and more pronounced activity than the corresponding quinolone and oxazolidinone as well as a 1+1 combination of these two compounds.

Another series relates to S. pneumoniae. The series is described as follows: MIC against S. pneumoniae. In kind it is cell-based. As for the experimental part:
as §1

The next series deals with E. faecalis. Kind of series: MIC against E. faecalis. Type of series: cell-based. The method, then: as §1
Another series relates to E. faecium. The series is described as follows: MIC against E. faecium. In kind it is cell-based. The method, then: as §1
A further series concerns S. aureus (MSSA). Kind of series: MIC against S. aureus (MSSA). In kind it is cell-based. As for the experimental part:
as §1

Molecules are shown by their SMILES.

Regarding `CC(=O)NC[C@H]1CN(c2ccc(N3CCN(c4cc5c(cc4F)c(=O)c(C(=O)O)cn5C4CC4)CC3)c(F)c2)C(=O)O1` (stereo in doubt) [Example 1, 7-(4-{4-[5-(acetylamino-methyl)-2-oxo-oxazolidin-3-yl]-2-fluoro-phenyl}-piperazin-1-yl)-1-cyclopropyl-6-fluoro-4-oxo-1,4-dihydro-quinoline-3-carboxylic acid], the melting point is 315 to 320 °C (dec.).

As for `CC(=O)NC[C@H]1CN(c2ccc(N3CCN(c4c(F)cc5c(=O)c(C(=O)O)cn6c5c4OCC6C)CC3)c(F)c2)C(=O)O1` (stereo partly drawn) [Example 2, 9-(4-{4-[5-(acetylamino-methyl)-2-oxo-oxazolidin-3-yl]-2-fluoro-phenyl}-piperazin-1-yl)-8-fluoro-3-methyl-6-oxo-2,3-dihydro-6H-1-oxa-3a-aza-phenalene-5-carboxylic acid], the melting point is 258 °C (dec.).

`O=C(O)c1cn(C2CC2)c2cc(N3CCNCC3)c(F)cc2c1=O` [ciprofloxacin]: the “Typical MIC range” value in the series on S. aureus (MRSA) was in the range of 0.5 to 32 µg/mL; in the series on S. pneumoniae it was 1 to 4 µg/mL; in the series with E. faecalis it was 0.5 to 32 µg/mL; in the series on E. faecium it was 0.25 to 32 µg/mL; in the series on S. aureus (MSSA), 0.125 to 1 µg/mL.

Turning to `CC(=O)NC[C@H]1CN(c2ccc(N3CCOCC3)c(F)c2)C(=O)O1` [linezolid], the “Typical MIC range” value with S. aureus (MRSA) was in the range of 1 to 2 µg/mL; with S. pneumoniae, 0.125 to 1 µg/mL; in the series on E. faecalis, 0.5 to 2 µg/mL; with E. faecium, 1 to 2 µg/mL; in the series on S. aureus (MSSA), 1 to 2 µg/mL.

Source of the values: US8329908B2, “Dual action antibiotics” (Morphochem Aktiengesellschaft fur Kombinatorische Chemie, priority 2001, dated 2012).
